# Assay results as given in US20050020576A1, “Kappa agonist compounds and pharmaceutical formulations thereof” (priority 1996, published 2005).
# Structures can show the parent of a compound that is named as a salt.
row,Structure (SMILES),melting point
1,"COC(=O)CNC(=O)c1ccccc1CC(=O)N(C)[C@H](CN1CCCC1)c1ccccc1 (as salt: hydrochloride) [Example 3mm, Methyl N-[2-(2-pheny)-N-methyl-N-{[1S]-1-phenyl-2-(1-pyrrolidinyl)ethyl}acetamido]2-oxo-glycinate hydrochloride]",204 to 206 °C
2,"CN(C(=O)Cc1ccccc1NS(C)(=O)=O)[C@H](CN1CCCC1)c1cccc(NS(C)(=O)=O)c1 (as salt: hydrochloride) [Example 3pp, 2-(2-Methanesulfonamidophenyl)-N-methyl-N-[(1S)-1-(3-methanesulfon-amidophenyl)-2-(1-pyrrolidinyl)ethyl]acetamide Hydrochloride]",160 °C (dec.)
3,"COc1cc(CC(=O)N(C)[C@H](CN2CCCC2)c2ccccc2)c(S(=O)(=O)N(C)Cc2ccccc2)cc1OC (as salt: hydrochloride) [Example 3xx, 2-(2-N-Benzyl-2-N-methylsulfamoyl-3,4-dimethoxyphenyl)-N-methyl-N-[(1S)-1-phenyl-2-(1-pyrrolidinyl)ethyl]acetamide hydrochloride]",188 to 190 °C
4,"CCOC(=O)/C=C/C(=O)Nc1cc(Cl)c(Cl)cc1CC(=O)N(C)[C@H](CN1CCCC1)c1ccccc1 (as salt: hydrochloride) [Example 3y, (E) Ethyl 4-[2-(2-amino-4,5-dichlorophenyl)-N-methyl-N-[(1S)-1-phenyl)-2-[1-pyrrolidinyl]ethyl]acetamido]4-oxo-2-butenoate hydrochloride]",165 to 167 °C (dec.)
5,"COc1ccc(CC(=O)N(C)[C@H](CN2CCCC2)c2ccccc2)cc1NS(C)(=O)=O (as salt: methane sulfonate) [Example 122, 2-(3-N-Methylsulfonamido-3-amino-4-methoxyphenyl)-N-methyl-N-[(1S)-1-phenyl-2-(1-pyrrolidinyl)ethyl]acetamide methane sulfonate]",149 to 151 °C
6,"CN(C(=O)Cc1ccc(O)c(N(S(C)(=O)=O)S(C)(=O)=O)c1)[C@H](CN1CCCC1)c1ccccc1 (as salt: salt) [Example 130, 2-(3-N-Bis-methylsulfonamido-3-amino-4-hydroxyphenyl)-N-methyl-N-[(1S)-1-phenyl-2-(1-pyrrolidinyl)ethyl]acetamide]",197 to 199 °C
7,"CN(C(=O)Cc1cc2c(cc1S(=O)(=O)N(C)Cc1ccccc1)OCO2)[C@H](CN1CCCC1)c1ccccc1 (as salt: salt) [Example 131, 2-[2-(N-Benzyl-N-methylsulfamoyl)-4,5-methylenedioxyphenyl]-N-methyl-N-[(1S)-1-phenyl-2-[(1-pyrrolidinyl)ethyl]]acetamide]",236 to 238 °C
8,"COc1cc(CC(=O)N(C)[C@H](CN2CC[C@H](O)C2)c2ccccc2)c(S(=O)(=O)N2CCCC2)cc1OC (as salt: salt) [Example 135, 2-[2-(N-Pyrrolidinesulfamoyl)-4,5-dimethoxyphenyl]-N-methyl-N-[(1S)-1-phenyl-2-[1-(3S)-(3-hydroxypyrrolidinyl)ethyl]]acetamide]",> 120 °C (dec.)
9,"CC(C)C(=O)Nc1cccc([C@@H](CN2CCCC2)N(C)C(=O)Cc2ccccc2NC(=O)C(C)C)c1 (as salt: sulfonic acid salt) [Example 3qq, 2-(2-Iso-butyramidophenyl)-N-methyl-N-[(1S)-1-(3-isobutyramido-phenyl)-2-(1-pyrrolidinyl)ethyl]acetamide Methanesulfonic acid salt]",143 to 145 °C
10,CN(C(=O)Cc1cc(Cl)c(Cl)cc1NC(=O)/C=C\C(=O)O)[C@H]1CCCC[C@@H]1N1CCCC1 (racemic),246 to 248 °C (dec.)
11,CNS(=O)(=O)c1cccc(CC(=O)N(C)[C@@H]2CCCC[C@H]2N2CCCC2)c1OC.Cl (racemic),168 to 170 °C
12,CN(C(=O)Cc1ccccc1NS(C)(=O)=O)[C@@H]1CCCC[C@H]1N1CCCC1.Cl (racemic),229 to 231 °C
13,CN(C(=O)Cc1ccc(S(C)(=O)=O)cc1)[C@@H]1CCCC[C@H]1N1CCCC1.Cl (racemic),152 to 154 °C (dec.)
14,COc1cc2c(cc1S(=O)(=O)N(C)Cc1ccccc1)[C@@H](N(C)C(=O)Cc1ccc(Cl)c(Cl)c1)[C@H](N1CCCC1)CC2 (racemic) (as salt: HCl),150 °C (dec.)
15,CN(C(=O)Cc1ccc(Cl)c(Cl)c1)[C@@H]1c2cc(S(=O)(=O)N(C)Cc3ccccc3)ccc2CC[C@H]1N1CCCC1 (racemic) (as salt: HCl),251 to 254 °C
16,CN(C(=O)Cc1cc(Cl)c(Cl)cc1[N+](=O)[O-])[C@@H]1c2ccccc2C[C@H]1N1CCCC1 (racemic) (as salt: HCl),284 to 287 °C
17,CN(C(=O)Cc1ccc(C(F)(F)F)cc1[N+](=O)[O-])[C@@H]1c2ccccc2C[C@H]1N1CCCC1 (racemic) (as salt: HCl),249 to 250 °C
18,CN(C(=O)C(c1ccccc1)c1ccccc1)[C@@H]1c2ccccc2C[C@H]1N1CCCC1 (racemic) (as salt: HCl),> 300 °C

row,Structure (SMILES),melting point
1,CN(C(=O)Cc1ccc(S(C)(=O)=O)cc1)[C@@H]1c2ccccc2C[C@H]1N1CCCC1 (racemic) (as salt: HCl),246 to 248 °C
2,"CN(C(=O)C(c1ccccc1)c1ccccc1)C1CCCCC1N1CCCC1 (racemic) (as salt: HCl) [Example 5s, (±)-trans-N-Methyl-N-[2-(1-pyrrolidinyl)cyclohexyl]2,2-dphenylacetamide Hydrochloride]",295 to 297 °C (dec.)
3,"CS(=O)(=O)c1ccc(CC(=O)N2CCN(S(C)(=O)=O)CC2CN2CCCC2)cc1 (racemic) (as salt: hydrochloride) [(R,S-8b), (R,S)-4-Methanesulfonyl-1-[(4-methylsulfonylphenyl)acetyl]-2-[(1-pyrrolidinyl)-methyl]piperazine hydrochloride]",185 to 188 °C
4,"CS(=O)(=O)N1CCN(C(=O)Cc2c[nH]c3ccccc23)C(CN2CCCC2)C1 (racemic) (as salt: hydrochloride) [(R,S-8e), (R,S)-4-Methanesulfonyl-1-[(3-indolylacetyl-2-[(1-pyrrolidinyl)-methyl]piperazine hydrochloride]",219 to 221 °C
5,"COC(=O)N1CCN(C(=O)Cc2ccc(S(C)(=O)=O)cc2)C(CN2CCCC2)C1 (racemic) (as salt: hydrochloride) [(R,S-9a), (R,S)-Methyl 4-[(4-methylsulfonylphenyl)acetyl]-3-[(1-pyrrolidinyl)-methyl]-1-piperazinecarboxylate hydrochloride]",225 °C
6,"COC(=O)N1CCN(C(=O)Cc2ccc(C(F)(F)F)cc2)C(CN2CCCC2)C1 (racemic) (as salt: hydrochloride) [(R,S-9b), (R,S)-Methyl 4-[(4-trifluoromethylphenyl)acetyl]-3-[(1-pyrrolidinyl)-methyl]-1-piperazinecarboxylate hydrochloride]",210 °C
7,"COC(=O)N1CCN(C(=O)Cc2c[nH]c3ccccc23)C(CN2CCCC2)C1 (racemic) (as salt: hydrochloride) [(R,S-9c), (R,S)-Methyl 4-[(3-indolyl)acetyl]-3-[(1-pyrrolidinyl)-methyl]-1-piperazine-carboxylate hydrochloride]",143 °C
8,"COC(=O)N1CCN(C(=O)Cc2ccccc2[N+](=O)[O-])C(CN2CCCC2)C1 (racemic) (as salt: hydrochloride) [(R,S-9d), (R,S)-Methyl 4-[(2-nitrophenyl)acetyl]-3-[(1-Pyrrolidinyl)-methyl]-1-piperazine-carboxylate hydrochloride]",228 °C
9,"COC(=O)N1CCN(C(=O)Cc2ccccc2OC)C(CN2CCCC2)C1 (racemic) (as salt: hydrochloride) [(R,S-9e)]",120 °C
10,"COC(=O)N1CCN(C(=O)Cc2ccccc2N)C(CN2CCCC2)C1 (racemic) (as salt: hydrochloride) [(R,S-9f), (R,S)-Methyl 4-[(2-aminophenyl)acetyl]-3-[(1-pyrrolidinyl)-methyl]-1-piperazine-carboxylate dihydrochloride]",195 °C (dec.)
11,"CC(=O)N1CCN(C(=O)Cc2ccc(S(C)(=O)=O)cc2)C(CN2CCCC2)C1 (racemic) (as salt: hydrochloride) [(R,S-10a)]",145 to 147 °C
12,"CC(=O)N1CCN(C(=O)Cc2ccc(C(F)(F)F)cc2)C(CN2CCCC2)C1 (racemic) (as salt: hydrochloride) [(R,S-10b)]",110 °C
13,"CC(=O)N1CCN(C(=O)Cc2cccc([N+](=O)[O-])c2)C(CN2CCCC2)C1 (racemic) (as salt: hydrochloride) [(R,S-10d), (R,S)-4-Acetyl-1-[(3-nitrophenyl)acetyl]-3-[(1-pyrrolidinyl)-methyl]piperazine-carboxylate hydrochloride]",143 to 145 °C
14,"CC(=O)N1CCN(C(=O)Cc2ccccc2[N+](=O)[O-])C(CN2CCCC2)C1 (racemic) (as salt: hydrochloride) [(R,S-10e), (R,S)-4-Acetyl-1-[(2-nitrophenyl)acetyl]-3-[(1-pyrrolidinyl)-methyl]piperazine-carboxylate hydrochloride]",180 °C (dec.)
15,"COC(=O)N1CCN(C(=O)Cc2ccc(C(F)(F)F)cc2N(S(C)(=O)=O)S(C)(=O)=O)C(CN2CCCC2)C1 (racemic) (as salt: hydrochloride) [Example 1b, Methyl-4-[(2-[N,N-bis-methylsulfonamido]-4-trifluoromethyphenyl)acetyl]-3-(R,S)-[(1-pyrrolidinyl)-methyl]-1-piperazinecarboxylate dihydrochloride]",155 to 160 °C
16,"COC(=O)N1CCN(C(=O)Cc2ccccc2N(S(C)(=O)=O)S(C)(=O)=O)C(CN2CCCC2)C1 (racemic) (as salt: hydrochloride) [Example 1d, Methyl-4-[(2-[N,N-bis-methylsulfonamido]phenyl)acetyl]-3-(R,S)-[(1-pyrrolidinyl)methyl]-1-piperazinecarboxylate hydrochloride]",145 to 150 °C
17,"CNS(=O)(=O)c1ccccc1CC(=O)N1CCN(C(=O)OC)CC1CN1CCCC1 (racemic) (as salt: hydrochloride) [Example 1e, Methyl-4-[(2-[N-methylamino)sulfamyl]phenyl)acetyl]-3-(R,S)-[(1-pyrrolidinyl)methyl]-1-piperazinecarboxylate hydrochloride]",155 to 160 °C
